Earlier results on six sequences are cited in US9400249B2, “Detection of biopolymer interactions, cancer cells, and pathogens using split-supercharged GFP” (Colorado State University Research Foundation, priority 2012, dated 2016).

What is called Kd is the concentration at which binding is half-saturated.

In one data set the target is Head and neck cancer. The conditions noted are these: Targeted cell type: Head and neck cancer; read-out: Approximate affinity (Kd in nM).
Data set [1] concerns the target Breast cancer, Neuroblastoma. The following applies: Targeted cell type: Breast cancer, read-out: Approximate affinity (Kd in nM).
In another data set the target is Cholangiocarcinoma. The following applies: Targeted cell type: Cholangiocarcinoma; read-out: Approximate affinity (Kd in nM).
A further data set addresses Hepatocellular carcinoma. The conditions noted are these: Targeted cell type: Hepatocellular carcinoma; read-out: Approximate affinity (Kd in nM).
For data set [2], the system named is PC-3 prostate cancer cells. The conditions noted are these: previously reported.
Another data set has as its target Osteosarcoma. The conditions noted are these: Targeted cell type: Osteosarcoma; read-out: Approximate affinity (Kd in nM).

In the case of “TSPLNIHNGQKL [cell targeting peptide, targeted cell type head and neck cancer]”, on Head and neck cancer, the Kd is about 1000 nM.

With “VPWMEPAYQRFL [cell targeting peptide, targeted cell type breast cancer, neuroblastoma]”, the Kd in data set [1] was 50000 to 80000 nM.

For the sequence “TPVLETPKLLLW [cell targeting peptide, targeted cell type cholangiocarcinoma]”, the Kd on Cholangiocarcinoma was about 500 nM.

As to “AGKGTPSLETTP [cell targeting peptide, targeted cell type hepatocellular carcinoma]”, the Kd at Hepatocellular carcinoma was about 50 nM.

Turning to FRPNRAQDYNTN, the “binding to PC-3 prostate cancer cells” value in the data set with Prostate cancer (PC-3 prostate cancer cells, previously reported) was “potently binds”. In addition, the Kd at Prostate cancer (Targeted cell type: Prostate cancer, read-out: Approximate affinity (Kd in nM)) was about 180 nM. Besides, the “penetration of PC-3 prostate cancer cells” value in data set [2] is “does not appreciably penetrate”.

In the case of “ASGALSPSRLDT [cell targeting peptide, targeted cell type osteosarcoma]”, the Kd on Osteosarcoma was about 2000 nM.
